Reference: patent publication US7632952B2, “Benzothiazoles and the use thereof as medicaments” (Aventis Pharma S.A., priority 2004, dated 2009)
Counter-ions that a name gives are not always drawn.

Assays:
HeLa = HeLa proliferation; type: cell-based; conditions: Homo sapiens, read-out: HeLa proliferation EC50 (nM) DG
CDK2/cyclin E = CDK2/cyclin E (Homo sapiens, UniProt P24941); assay: CDK2/cyclin E Flashplate test in 96-well format; type: biochemical; conditions: read-out: CDK2 IC50
Protocol: 1. Protocol CDK2/cyclin E:
Purification of the CDK2/cyclin E-(His)6 Complex by IMAC (Immobilized Metal Affinity Chromatography):
Two recombinant baculoviruses bearing the human sequences coding, respectively, for CDK2 and cyclin E (the latter comprising a C-terminal hexahistidine tag) are used to coinfect insect Sf21 cells. Two to three days after the start of coinfection, the cells are harvested by centrifugation and then stored at −40° C. until the time of use. After thawing and mechanical lysis of the cells, the complex present in the lysis supernatant is purified by affinity chromatography on nickel (IMAC), and stored at −80° C.
CDK2/cyclin E Flashplate Test in 96-Well Format
A format in 96-well plates coated with streptavidin is used to test the activity of the compounds on the kinase activity of CDK2/cyclin E.
To perform this test, the biotinylated peptide substrate, a fragment of the pRb protein (biotinyl-[…]-OH) is dissolved at a concentration of 1 mM in kinase buffer (HEPES/NaOH 50 mM, NaCl 1 mM, MgCl2 5 mM, pH 7.5) in order to constitute a stock solution stored at −20° C. in the form of 110 μl aliquots. On the day of the experiment, an aliquot of this solution is thawed and diluted in kinase buffer containing 1 mM of dithiothreitol, and added to the buffer extemporaneously, in order to obtain a concentration of 14.3 μM. 70 μl of this solution are added to each well of the Flashplate in order to obtain a final substrate concentration of 10 μM during the enzymatic reaction, performed in a final volume of the reaction medium of 100 μl (cf. below).
Intermediate dilutions of inhibitors (products of the invention) at various concentrations are prepared in DMSO from stock solutions at 10 mM in separate tubes. 1000 μM, 333.3 μM, 111.1 μM, 37.03 μM, 12.35 μM, 4.11 μM and 1.37 μM dilutions are thus prepared. 1 μl of each of these solutions (or 1 μl of DMSO for the controls) is transferred into the wells of the test plate.
Into each well are then added 19 μl of a solution of a mixture of adenosine triphosphate (ATP) and of ATPy^33P in the kinase buffer at a concentration of 5.26 μM of ATP total and 52.6 μCi/ml of ^33P. The enzymatic reaction is triggered by addition of 10 μl per well of a solution of CDK2/cyclin E at 200 nM in the kinase buffer containing 1 mM of dithiothreitol (or 10 μl of kinase buffer containing 1 mM of dithiothreitol for the reaction blanks).
After addition of all the reagents, the plate is incubated at 30° C. with orbital stirring at 650 rpm.
When the incubation is complete, the plate is washed three times with 300 μl per well of PBS (phosphate-buffered saline, pH=7.4, without calcium or magnesium, reference 10010-015, Gibco BRL). The incorporation of ^33P into the peptide is quantified by scintillation counting using a Packard Topcount.NXT machine. The inhibitory activity of the products of the invention is evaluated by measuring the inhibitory concentration that allows a 50% reduction in the enzymatic activity (IC50).

CDK4/cyclin D1 = CDK4/cyclin D1 (Homo sapiens, UniProt P11802); assay: CDK4/cyclin D1 Flashplate test in 96-well format; type: biochemical
Protocol: 2. CDK4/cyclin D1 Protocol:
Purification of the CDK4-HA/cyclin D1-(His)6 Complex by IMAC (Immobilized Metal Affinity Chromatography):
Two recombinant baculoviruses bearing the human sequences coding, respectively, for CDK4-HA (C-terminal fusion with the hemaglutinin tag) and for cyclin D1-(His)6 are used to coinfect insect Sf9 cells. Sixty hours after the start of the coinfection, the cells are harvested by centrifugation and then frozen at −20° C. until the time of use.
CDK4/cyclin D1 Flashplate Test in 96-Well Format
A test in 96-well “Flashplate” plates coated with streptavidin is used to evaluate the inhibition of the CDK4/cyclin D1 kinase complex by the products of the invention. To perform this test, the biotinylated peptide substrate, a fragment of the pRb protein (biotinyl-[…]-amide) is dissolved at a concentration of 2 mM in kinase buffer (HEPES/NaOH 50 mM, NaCl 1 mM, MgCl2 5 mM, pH 7.5) in order to constitute a stock solution stored at −20° C. in the form of 110 μl aliquots. On the day of the experiment, an aliquot of this solution is thawed and diluted in kinase buffer containing 1 mM of dithiothreitol, and added to the buffer extemporaneously, in order to obtain a final peptide concentration of 2.571 μM. 70 μl of this solution are added to each well of the Flashplate in order to obtain a final substrate concentration of 1.8 μM during the enzymatic reaction, performed in a final volume of the reaction medium of 100 μl (cf. below). Intermediate dilutions of inhibitors (products of the invention) at various concentrations are prepared in DMSO from stock solutions at 10 mM in separate tubes. 1000 μM, 333.3 μM, 111.1 μM, 37.03 μM, 12.35 μM, 4.11 μM and 1.37 μM dilutions are thus prepared. 1 μl of each of these solutions (or 1 μl of DMSO for the controls) is then transferred into the wells of the test plate. Into each well are then added 19 μl of a solution of a mixture of adenosine triphosphate (ATP) and of ATPy^33P in the kinase buffer at a concentration of 5.26 μM of ATP total and 78.9 μCi/ml of ^33P. The enzymatic reaction is triggered by addition of 10 μl per well of a solution of CDK4/cyclin D1 at 250 nM in the kinase buffer containing 1 mM of dithiothreitol (or 10 μl of kinase buffer containing 1 mM of dithiothreitol for the reaction blanks).
After addition of all the reagents, the test plate is incubated at 30° C. with orbital stirring at 650 rpm. After the incubation, the plate is washed three times with 300 μl per well of PBS (phosphate-buffered saline, pH=7.4, without calcium or magnesium, reference 10010-015, Gibco BRL). The incorporation of ^33P into the substrate peptide is quantified by scintillation counting using a Packard Topcount.NXT machine. The inhibitory activity of the products of the invention is evaluated by measuring the inhibitory concentration that allows a 50% reduction in the enzymatic activity (IC50).

Chain of CDK4/cyclin D1 (P11802 whole entry): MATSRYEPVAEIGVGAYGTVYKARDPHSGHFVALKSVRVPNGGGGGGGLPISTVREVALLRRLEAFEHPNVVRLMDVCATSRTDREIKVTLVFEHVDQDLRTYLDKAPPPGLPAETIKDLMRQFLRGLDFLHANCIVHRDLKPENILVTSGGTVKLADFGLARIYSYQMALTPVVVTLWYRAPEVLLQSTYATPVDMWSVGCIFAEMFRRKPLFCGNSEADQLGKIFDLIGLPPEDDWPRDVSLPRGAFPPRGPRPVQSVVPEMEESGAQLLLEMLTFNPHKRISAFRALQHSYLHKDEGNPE
Chain of CDK4/cyclin D1 (P24385 whole entry partner): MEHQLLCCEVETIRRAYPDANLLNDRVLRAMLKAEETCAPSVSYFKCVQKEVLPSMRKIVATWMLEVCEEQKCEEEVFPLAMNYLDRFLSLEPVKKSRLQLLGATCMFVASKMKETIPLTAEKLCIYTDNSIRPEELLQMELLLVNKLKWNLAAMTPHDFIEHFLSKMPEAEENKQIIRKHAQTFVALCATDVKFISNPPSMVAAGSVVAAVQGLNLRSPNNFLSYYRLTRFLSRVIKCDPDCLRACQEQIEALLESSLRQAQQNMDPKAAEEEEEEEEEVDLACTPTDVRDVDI

Structure (SMILES) | EC50 (HeLa) | IC50 (CDK2/cyclin E) | IC50 (CDK4/cyclin D1)
CC(C)N(CCNc1ccc(S(=O)(=O)Oc2ccc3nc(NC(=O)CCCCCN)sc3c2)cc1)C(C)C [Example 49, 4-(2-diisopropylaminoethylamino)benzenesulfonic acid 2-(6-aminohexanoylamino)benzothiazol-6-yl ester hydrochloride] | 2700 nM | 183 nM | 328 nM
CC(C)N(CCNc1ccc(S(=O)(=O)Oc2ccc3nc(NC(=O)CCc4cccnc4)sc3c2)cc1)C(C)C [Example 62, 4-(2-diisopropylaminoethylamino)benzenesulfonic acid 2-(3-pyrid-3-ylpropionylamino)benzothiazol-6-yl ester hydrochloride] | 296 nM | 75 nM | 236 nM
O=C(CCC1CCNCC1)Nc1nc2ccc(OS(=O)(=O)c3ccc(NCCNCCO)cc3)cc2s1 [Example 25c, 4-[2-(2-Hydroxyethyl-amino)-ethylamino] benzenesulfonic acid 2-(3-piperid-4-ylpropionyl-amino)benzothiazol-6-yl ester hydrochloride] | > 12500 nM | 2640 nM | 3890 nM
CC(C)CNc1ccc(S(=O)(=O)Oc2ccc3nc(NC(=O)CC4CCNCC4)sc3c2)cc1 [Example 28, 4-isobutylaminobenzenesulfonic acid 2-(2-piperid-4-ylacetylamino)benzothiazol-6-yl ester hydrochloride] | 1330 nM | 266 nM | 399 nM
CC(C)N(CCNc1ccc(S(=O)(=O)Oc2ccc3nc(NC(=O)CCCCCCCN)sc3c2)cc1)C(C)C [Example 40, 4-(2-diisopropylaminoethylamino)benzenesulfonic acid 2-(8-aminooctanoylamino)benzothiazol-6-yl ester] | 7550 nM | 209 nM | 253 nM
CCC(=O)Nc1nc2ccc(OS(=O)(=O)c3ccc(NCCNC(C)C)cc3)cc2s1 [Example 71, 4-(2-isopropylaminoethylamino)benzenesulfonic acid 2-propionylaminobenzothiazol-6-yl ester; compound with trifluoroacetic] | 2170 nM | 175 nM | 424 nM
CC(C)(O)CNc1ccc(S(=O)(=O)Oc2ccc3nc(NC(=O)CCCCCCCN)sc3c2)cc1 [Example 22d, 4-(2-Hydroxy-2-methyl-propylamino)benzene-sulfonic acid 2-(8-amino-octanoylamino)benzo-thiazol-6-yl ester hydro-chloride] | 5360 nM | 69 nM | 708 nM
CC(C)NCCNc1ccc(S(=O)(=O)Oc2ccc3nc(NC(=O)CCC4CCNCC4)sc3c2)cc1 [Example 24, 4-(2-Isopropylaminoethylamino)benzenesulfonic acid 2-(3-piperid-4-ylpropionylamino)benzothiazol-6-yl ester hydrochloride] | > 12500 nM | 864 nM | 1670 nM
CC(C)NCCNc1ccc(S(=O)(=O)Oc2ccc3nc(NC(=O)C4CCCC4)sc3c2)cc1 [Example 69, 4-(2-isopropylaminoethylamino)benzenesulfonic acid 2-(cyclopentanecarbonylamino)benzothiazol-6-yl ester] | 1130 nM | 299 nM | 914 nM
CCCC(=O)Nc1nc2ccc(OS(=O)(=O)c3ccc(NCCNC(C)C)cc3)cc2s1 [Example 73, 4-(2-isopropylaminoethylamino)benzenesulfonic acid 2-butyrylaminobenzothiazol-6-yl ester; compound with trifluoroacetic acid] | 249 nM | 185 nM | 246 nM
CC(C)NCCNc1ccc(S(=O)(=O)Oc2ccc3nc(NC(=O)C(C)C)sc3c2)cc1 [Example 75, 4-(2-isopropylaminoethylamino)benzenesulfonic acid 2-isobutyrylaminobenzothiazol-6-yl ester; compound with trifluoroacetic acid] | 195 nM | 445 nM | 874 nM
